The text below walks through data of ChEMBL document CHEMBL3877246, “Antileishmanial effect of new indeno-1,5-naphthyridines, selective inhibitors of Leishmania infantum type IB DNA topoisomerase” (Eur J Med Chem, 2016).

A word on the CC50: it is the concentration giving 50% cytotoxicity. For orientation: IC50 means the point on the concentration scale where inhibition reaches its midpoint.

The subject of data set [1] is Leishmania infantum. The data set is described as follows: Inhibition of Leishmania infantum recombinant topoisomerase 1B expressed in topoisomerase 1B- deficient Saccharomyces cerevisiae EKY3 assessed as decrease in relaxation of negatively supercoiled pSK DNA at 100 uM preincubated for 1 min followed by supercoiled pSK DNA addition measured after 5 mins by aggarose gel electrophoresis.

Data set [2] deals with Leishmania infantum. Description: Inhibition of Leishmania infantum recombinant topoisomerase 1B expressed in topoisomerase 1B- deficient Saccharomyces cerevisiae EKY3 assessed as decrease in relaxation of negatively supercoiled pSK DNA at 100 uM preincubated for 5 mins followed by supercoiled pSK DNA addition measured after 5 mins by aggarose gel electrophoresis.
The nature of data set [3]: Cytotoxicity against BALB/c mouse splenocytes assessed as cell viability after 48 hrs by alamar blue assay. The data set is classed as toxicity, Splenocyte. In general terms: The colour change of resazurin is a common sign of viable cells or microbes.
Data set [4] is filed under the species Homo sapiens. The data set is described as follows: Inhibition of human recombinant topoisomerase 1B expressed in topoisomerase 1B- deficient Saccharomyces cerevisiae EKY3 assessed as decrease in relaxation of negatively supercoiled pSK DNA at 100 uM preincubated for 1 min followed by supercoiled pSK DNA addition measured after 5 mins by aggarose gel electrophoresis.

The species entered for data set [5] is Homo sapiens. The data set is described as follows: Inhibition of human recombinant topoisomerase 1B expressed in topoisomerase 1B- deficient Saccharomyces cerevisiae EKY3 assessed as decrease in relaxation of negatively supercoiled pSK DNA at 100 uM preincubated for 5 mins followed by supercoiled pSK DNA addition measured after 5 mins by aggarose gel electrophoresis.

In data set [6] the test system is Leishmania infantum. The data set is described as follows: Antileishmanial activity against Leishmania infantum amastigotes harboring iRFP gene infected BALB/c mouse splenocytes after 48 hrs by infrared imaging method. The data set is classed as functional.
Data set [7] is filed under the species Homo sapiens. Description: Inhibition of human recombinant topoisomerase 1B expressed in topoisomerase 1B- deficient Saccharomyces cerevisiae EKY3 assessed as decrease in relaxation of negatively supercoiled pSK DNA at 100 uM preincubated for 15 mins followed by supercoiled pSK DNA addition measured after 5 mins by aggarose gel electrophoresis.
Data set [8] is described as follows: Inhibition of Leishmania infantum recombinant topoisomerase 1B expressed in topoisomerase 1B- deficient Saccharomyces cerevisiae EKY3 assessed as decrease in relaxation of negatively supercoiled pSK DNA preincubated for 15 mins followed by supercoiled pSK DNA addition measured after 5 mins by aggarose gel electrophoresis.
The nature of data set [9]: Selectivity index, ratio of CC50 for BALB/c mouse splenocytes to IC50 for Leishmania infantum amastigotes harboring iRFP gene infected BALB/c mouse splenocytes. In kind it is functional.
A short description of data set [10]: Inhibition of human recombinant topoisomerase 1B expressed in topoisomerase 1B- deficient Saccharomyces cerevisiae EKY3 assessed as decrease in relaxation of negatively supercoiled pSK DNA preincubated for 15 mins followed by supercoiled pSK DNA addition measured after 5 mins by aggarose gel electrophoresis.
The subject of data set [11] is Leishmania infantum. Description: Antileishmanial activity against Leishmania infantum BCN150 promastigotes harboring iRFP gene by infrared imaging method. In kind it is functional.
The subject of data set [12] is Leishmania infantum. The data set is described as follows: Inhibition of Leishmania infantum recombinant topoisomerase 1B expressed in topoisomerase 1B- deficient Saccharomyces cerevisiae EKY3 assessed as decrease in relaxation of negatively supercoiled pSK DNA at 100 uM preincubated for 15 mins followed by supercoiled pSK DNA addition measured after 5 mins by aggarose gel electrophoresis.

Active and inactive are the calls of the source. No cut-off for these calls is given here. Some results are limits rather than exact numbers.

As for `O=[N+]([O-])c1ccc(-c2nc3cccnc3c3c2Cc2ccccc2-3)cc1`, the inhibition entry in data set [1], in [2], in [4], in data set [5], in [7] and in data set [12] was “Active” throughout. For the same compound, the CC50 at 48 h in [3] amounted to 88.1 µM. The IC50 in data set [6] was 68.3 µM; in data set [8] it was 42.3 µM; in [10], 31.6 µM; in data set [11], greater than 100 µM. Besides, in data set [9], the “Ratio CC50/IC50” value was 1.29.
With `c1ccc2c(c1)Cc1c(-c3ccc4ccccc4c3)nc3cccnc3c1-2`, the inhibition result in data set [1], in [2], in data set [4], in data set [5], in [7] and in [12] was “Active” in each case. Also, the CC50 at 48 h in data set [3] worked out at 75.8 µM. For the same compound, the IC50 in data set [6] is 11.9 µM; in data set [8], 28.1 µM; in [10], 83.4 µM; in data set [11], 34.6 µM. Further, the “Ratio CC50/IC50” value in [9] was 6.4.
